DBAASP
≈ marks a conversion by molar mass, not a printed value. Where “and” joins values, the source holds several entries; their conditions need not be identical. Identical values can stand only once. Each block holds one compound with its values, some of them ahead of it.

What was measured:
Test in all cases: ≥ marks a high value that may be exact or a test limit, other limits are often not marked, values filed in µg/mL are converted to µM
[1] = test system: Staphylococcus aureus ATCC 6538
[2] = test system: Pseudomonas aeruginosa ATCC 9027
[3] = test system: Staphylococcus aureus NCTC 10788
[4] = test system: Acinetobacter baumannii ATCC 19606
[5] = test system: Pseudomonas aeruginosa ATCC 27853
[6] = test system: Escherichia coli ATCC 25922
[7] = test system: Staphylococcus aureus ATCC 25923
[8] = test system: Candida albicans ATCC 90028
[9] = test system: Staphylococcus epidermidis ATCC 12228
Escherichia coli UB1005 = test system: Escherichia coli UB1005
[10] = test system: Salmonella enterica subsp. enterica serovar Typhimurium C77-31
[11] = test system: Staphylococcus aureus ATCC 29213
[12] = test system: Candida albicans ATCC 2002
Escherichia coli = test system: Escherichia coli
Candida albicans = test system: Candida albicans
Staphylococcus aureus = test system: Staphylococcus aureus

SMILES: CC(C)C[C@H](NC(=O)[C@H](C)NC(=O)[C@H](CCCCN)NC(=O)[C@H](CCCCN)NC(=O)[C@H](Cc1ccccc1)NC(=O)[C@H](C)NC(=O)[C@H](CCCCN)NC(=O)[C@H](C)NC(=O)[C@H](Cc1ccccc1)NC(=O)[C@H](CC(C)C)NC(=O)[C@H](CCCCN)NC(=O)[C@H](C)NC(=O)[C@@H](N)Cc1ccccc1)C(N)=O [FAKLFAKAFKKAL]
MIC [1]: 67.4 µM (≈ 99.9 µg/mL) | MIC [2]: 135 µM (≈ 200 µg/mL)

SMILES: CC(C)C[C@H](NC(=O)[C@H](Cc1ccccc1)NC(=O)[C@H](CCCCN)NC(=O)[C@H](CCCCN)NC(=O)[C@H](CC(C)C)NC(=O)[C@H](C)NC(=O)[C@H](CCCCN)NC(=O)[C@H](C)NC(=O)[C@H](CC(C)C)NC(=O)[C@H](CC(C)C)NC(=O)[C@H](CCCCN)NC(=O)[C@H](C)NC(=O)[C@@H](N)Cc1ccccc1)C(N)=O [FAKLLAKALKKFL]
MIC [1]: 6.71 µM (≈ 9.99 µg/mL) | MIC [2]: 67.1 µM (≈ 99.9 µg/mL)

SMILES: CC(C)C[C@H](NC(=O)[C@H](CCCCN)NC(=O)[C@H](CCCCN)NC(=O)[C@H](CC(C)C)NC(=O)[C@H](C)NC(=O)[C@H](CCCCN)NC(=O)[C@H](C)NC(=O)[C@H](CC(C)C)NC(=O)[C@H](CC(C)C)NC(=O)[C@H](CCCCN)NC(=O)[C@H](C)NC(=O)[C@@H](N)Cc1ccccc1)C(N)=O [FAKLLAKALKKL]
MIC [1]: 7.44 µM (≈ 9.99 µg/mL) | MIC [2]: 18.6 µM (≈ 25 µg/mL)

SMILES: CC(C)C[C@H](NC(=O)[C@H](C)NC(=O)[C@H](CCCCN)NC(=O)[C@H](CCCCN)NC(=O)[C@H](CC(C)C)NC(=O)[C@H](Cc1ccccc1)NC(=O)[C@H](CCCCN)NC(=O)[C@H](C)NC(=O)[C@H](CC(C)C)NC(=O)[C@H](CC(C)C)NC(=O)[C@H](CCCCN)NC(=O)[C@H](C)NC(=O)[C@@H](N)Cc1ccccc1)C(N)=O [FAKLLAKFLKKAL]
MIC [1]: 6.71 µM (≈ 9.99 µg/mL) | MIC [2]: 134 µM (≈ 200 µg/mL)

SMILES: CC(C)C[C@H](NC(=O)[C@H](CC(C)C)NC(=O)[C@H](CO)NC(=O)CNC(=O)[C@H](CC(C)C)NC(=O)[C@H](CC(C)C)NC(=O)CNC(=O)[C@H](CC(C)C)NC(=O)[C@@H](N)Cc1ccccc1)C(N)=O [FLGLLGSLL]
MIC [3]: ≥ 34 µM

SMILES: CC(C)C[C@H](NC(=O)[C@H](CC(C)C)NC(=O)[C@H](CCCCN)NC(=O)[C@H](CCCCN)NC(=O)[C@H](CC(C)C)NC(=O)[C@H](CO)NC(=O)[C@H](CCCCN)NC(=O)[C@H](CC(C)C)NC(=O)[C@@H](N)Cc1ccccc1)C(N)=O [FLKSLKKLL]
MIC [4]: > 117 µM | MIC [5]: 7.34 µM (≈ 7.99 µg/mL) | MIC [6]: 58.7 µM (≈ 63.9 µg/mL) | MIC [7]: 117 µM (≈ 128 µg/mL)

Now from value to compound:

MIC [6]: 50 µM (≈ 153 µg/mL) | MIC [7]: > 200 µM | MIC [8]: ≥ 100 µM
SMILES: CC[C@H](C)[C@@H]1NC(=O)[C@H](CCCCN)NC(=O)[C@@H](NC(=O)[C@H](CCCCN)NC(=O)[C@H](CC(C)C)NC(=O)[C@H](CCCCN)NC(=O)[C@H](CC(=O)O)NC(=O)[C@H](CC(C)C)NC(=O)[C@H](CCSC)NC(=O)[C@H](CCC(N)=O)NC(=O)CNC(=O)[C@H](C)NC(=O)[C@H](CC(C)C)NC(=O)[C@H](CC(N)=O)NC(=O)[C@H](CCCCN)NC(=O)[C@H](C)NC(=O)[C@H](C)NC(=O)[C@H](CC(N)=O)NC(=O)[C@H](CCCCN)NC(=O)[C@@H](NC(=O)[C@@H](NC(=O)[C@H](CC(=O)O)NC(=O)[C@H](CCSC)NC(=O)[C@H](CC(C)C)NC(=O)CN)[C@@H](C)O)C(C)C)CSSC[C@@H](C(=O)O)NC(=O)[C@H](CO)NC(=O)CNC(=O)[C@H]([C@@H](C)O)NC1=O [GLMDTVKNAAKNLAGQMLDKLKCKITGSC]

MIC [9]: 2 µM (≈ 6.13 µg/mL) | MIC (Escherichia coli UB1005): 2 µM (≈ 6.13 µg/mL) | MIC [6]: 1 µM and 2 µM | MIC [10]: 1 µM (≈ 3.06 µg/mL) | MIC [11]: 2 µM (≈ 6.13 µg/mL) | MIC [7]: 4 µM (≈ 12.3 µg/mL)
SMILES: CC[C@H](C)[C@H](NC(=O)[C@H](Cc1c[nH]c2ccccc12)NC(=O)[C@H](CCCCN)NC(=O)[C@H](CC(C)C)NC(=O)[C@@H](NC(=O)[C@H](CCCCN)NC(=O)CNC(=O)[C@@H](NC(=O)[C@H](CCCCN)NC(=O)[C@H](CCCCN)NC(=O)[C@H](CC(C)C)NC(=O)[C@H](CCCN=C(N)N)NC(=O)[C@H](CCCCN)NC(=O)[C@H](CCCN=C(N)N)NC(=O)[C@@H](NC(=O)[C@H](CCCCN)NC(=O)[C@H](CCCCN)NC(=O)[C@H](CCCN=C(N)N)NC(=O)[C@H](CC(C)C)NC(=O)[C@H](CCCN=C(N)N)NC(=O)[C@H](CCCN=C(N)N)NC(=O)[C@H](Cc1ccccc1)NC(=O)[C@H](CCCN=C(N)N)NC(=O)CN)[C@@H](C)O)[C@@H](C)CC)C(C)C)C(N)=O [GRFRRLRKKTRKRLKKIGKVLKWI]

MIC [5]: 2.5 µM (≈ 4 µg/mL) | MIC [6]: 0.625 µM (≈ 1 µg/mL) | MIC [11]: 20 µM (≈ 32 µg/mL) | MIC [8]: 1.25 µM (≈ 2 µg/mL)
SMILES: CC[C@H](C)[C@H](NC(=O)[C@H](CCCN=C(N)N)NC(=O)[C@H](CCCCN)NC(=O)[C@@H](NC(=O)[C@H](CCCCN)NC(=O)[C@H](CCCN=C(N)N)NC(=O)[C@@H](N)CCCCN)C(C)C)C(=O)N[C@@H](CCCCN)C(=O)N[C@@H](CCCCN)C(=O)N[C@@H](Cc1ccccc1)C(=O)N[C@@H](CC(C)C)C(=O)N[C@@H](CCCN=C(N)N)C(=O)O [KRKVKRIKKFLR]

MIC [12]: ≥ 102 µM
SMILES: CC[C@H](C)[C@H](NC(=O)[C@@H](NC(=O)[C@@H](NC(=O)[C@@H]1CCCN1C(=O)[C@H](Cc1c[nH]c2ccccc12)NC(=O)[C@H](Cc1ccccc1)NC(=O)[C@H](CCCN=C(N)N)NC(=O)[C@H](CCCCN)NC(=O)[C@@H](NC(=O)[C@@H](N)CCCN=C(N)N)[C@@H](C)CC)C(C)C)C(C)C)C(=O)N[C@@H](CCCN=C(N)N)C(=O)O [RIKRFWPVVIR]

MIC [9]: 64 µM (≈ 110 µg/mL) | MIC (Escherichia coli UB1005): ≥ 32 µM | MIC [6]: 16 µM (≈ 27.6 µg/mL) | MIC [10]: ≥ 64 µM | MIC [11]: 64 µM (≈ 110 µg/mL) | MIC [7]: > 128 µM
SMILES: CC(C)C[C@H](NC(=O)[C@H](CCCN=C(N)N)NC(=O)[C@H](CCCCN)NC(=O)[C@H](Cc1c[nH]c2ccccc12)NC(=O)[C@@H](NC(=O)[C@H](CCCCN)NC(=O)[C@H](CCCCN)NC(=O)[C@H](CCCN=C(N)N)NC(=O)[C@H](CC(C)C)NC(=O)[C@H](CCCN=C(N)N)NC(=O)[C@@H](N)CCCN=C(N)N)[C@@H](C)O)C(=O)N[C@@H](Cc1c[nH]c2ccccc12)C(N)=O [RRLRKKTWKRLW]

MIC (Escherichia coli): 10 µM (≈ 26.4 µg/mL) | MIC (Candida albicans): 100 µM (≈ 264 µg/mL) | MIC (Staphylococcus aureus): 100 µM (≈ 264 µg/mL)
SMILES: CC[C@H](C)[C@H](NC(=O)[C@H](CCCCN)NC(=O)[C@H](CS)NC(=O)[C@H](C)NC(=O)[C@@H](NC(=O)[C@H](Cc1ccccc1)NC(=O)CNC(=O)[C@H](CC(C)C)NC(=O)CNC(=O)[C@@H](NC(=O)[C@H](CCCCN)NC(=O)CNC(=O)[C@H](CC(C)C)NC(=O)[C@H](CC(N)=O)NC(=O)[C@H](CCCCN)NC(=O)[C@H](CC(C)C)NC(=O)[C@@H](NC(=O)[C@H](C)NC(=O)[C@H](CC(C)C)NC(=O)[C@H](CCSC)NC(=O)[C@@H](N)CO)C(C)C)C(C)C)C(C)C)C(=O)N[C@@H](CC(N)=O)C(=O)N[C@@H](CCCCN)C(=O)N[C@@H](CCC(N)=O)C(=O)N[C@@H](CS)C(=O)O [SMLAVLKNLGKVGLGFVACKINKQC]

MIC (Escherichia coli): 20 µM (≈ 52.4 µg/mL) | MIC (Candida albicans): 100 µM (≈ 262 µg/mL) | MIC (Staphylococcus aureus): 100 µM (≈ 262 µg/mL)
SMILES: CC[C@H](C)[C@H](NC(=O)[C@H](CCCCN)NC(=O)[C@H](CO)NC(=O)[C@H](C)NC(=O)[C@@H](NC(=O)[C@H](Cc1ccccc1)NC(=O)CNC(=O)[C@H](CC(C)C)NC(=O)CNC(=O)[C@@H](NC(=O)[C@H](CCCCN)NC(=O)CNC(=O)[C@H](CC(C)C)NC(=O)[C@H](CC(N)=O)NC(=O)[C@H](CCCCN)NC(=O)[C@H](CC(C)C)NC(=O)[C@@H](NC(=O)[C@H](CO)NC(=O)[C@H](CC(C)C)NC(=O)[C@H](CCSC)NC(=O)[C@@H](N)CO)C(C)C)C(C)C)C(C)C)C(=O)N[C@@H](CC(N)=O)C(=O)N[C@@H](CCCCN)C(=O)N[C@@H](CCC(N)=O)C(=O)N[C@@H](CO)C(=O)O [SMLSVLKNLGKVGLGFVASKINKQS]

MIC [12]: ≥ 35.8 µM
SMILES: CC[C@H](C)[C@H](NC(=O)[C@H](C)NC(=O)[C@H](CCCN=C(N)N)NC(=O)[C@H](Cc1ccc(O)cc1)NC(=O)[C@H](CC(C)C)NC(=O)[C@H](CC(N)=O)NC(=O)[C@H](Cc1ccc(O)cc1)NC(=O)CNC(=O)[C@H](C)NC(=O)[C@@H](NC(=O)[C@@H](NC(=O)[C@@H](NC(=O)[C@H](CCCN=C(N)N)NC(=O)[C@@H](NC(=O)[C@@H](N)C(C)C)[C@@H](C)CC)[C@@H](C)O)C(C)C)C(C)C)C(=O)N[C@@H](CCCCN)C(=O)N[C@@H](CCCCN)C(=O)N[C@@H](CCCCN)C(=O)O [VIRTVVAGYNLYRAIKKK]

MIC [12]: 25.7 µM (≈ 56.3 µg/mL)
SMILES: CC[C@H](C)[C@H](NC(=O)[C@H](C)NC(=O)[C@H](CCCN=C(N)N)NC(=O)[C@H](Cc1ccc(O)cc1)NC(=O)[C@H](CC(C)C)NC(=O)[C@H](CC(N)=O)NC(=O)[C@H](Cc1ccc(O)cc1)NC(=O)CNC(=O)[C@H](C)NC(=O)[C@@H](NC(=O)[C@@H](NC(=O)[C@@H](NC(=O)[C@H](CCCN=C(N)N)NC(=O)[C@@H](NC(=O)[C@@H](NC(=O)[C@@H](N)C(C)C)C(C)C)[C@@H](C)CC)[C@@H](C)O)C(C)C)C(C)C)C(=O)N[C@@H](CCCCN)C(=O)N[C@@H](CCCCN)C(=O)N[C@@H](CCCCN)C(=O)O [VVIRTVVAGYNLYRAIKKK]
